Patent publication US5288723A, “A composition and a method of using veratridine and epinephrine as a local anesthetic” (priority 1991, dated 1994)
“Also recorded” adds a separate entry of the source. Read-outs that look alike come from different tables or passages of the source.

Key:
[1] = test system: vagus nerve with intact sheath (C-fibers); assay: Extracellular recordings from sheathed nerves; set-up: species or system rabbit
Method: (§1) The nerves were cleaned and desheathed by microdissection before mounting in an airtight chamber (FIG. 2B) [Gissen et al., Anesthesiology 53:467-474 (1980)]. Petroleum jelly (White Petrolatum, Denison Laboratories) seals separated a central, 11-mm length of the nerve from the lateral pools, used for stimulating and recording with electrodes made of platinum wire. The central section of the chamber (volume 0.25 ml) was perfused with HL solution at 0.5 ml.min.^-1. The lateral pools containing the moistened ends of the nerves adsorbed to the electrodes were filled with paraffin oil. The APc s were propagated over 21 mm, from the stimulating to the recording electrodes, with the proximal recording electrodc located 4.5 mm from the edge of the central, drug exposure chamber. Thus, measured APc s were conducted in nerve exposed to drug for half of the conduction pathway, and had been conducting through drug-free medium over a distance containing at least two or three nodes of Ranvier (in the fastest-conducting fibers), before reaching the recording electrodes.
(§2) The signal from the nerve was amplified 50 times (model AK 475 operational amplifier, Metametrics, Carlisle, Mass.) and passed to the oscilloscope preamplifiers (model 5A 22N, Tektronix). The preparation was not considered acceptable unless the APc signals from the nerve exceeded 1.5 mV for A-fibers, 0.5 mV for B-fibers, and 0.3 mV for C-fibers.
(§3) Each nerve was exposed to only one VTD concentration, and each concentration was tested in four or five separate nerves, except in tie sheathed nerves, for which only two nerves were used. The temperature was 20°-22° C.
We tested the ability of VTD to penetrate the tissues ensheathing the vagus nerve. Nerves with intact sheaths were arranged in the same extracellular recording chamber as had been used for the desheathed nerve studies just described. Because of the electrical isolating qualities of the sheath, stimulus requirements are greater and the recorded APC s are smaller, but have the same latency from stimulation as in the desheathed nerves. […] However, the onset of the effect was much slower and the VTD dose requirement much higher: 2 μM VTD took approximately 30 min. to affect the C-fibers detectably, and 10 μM took approximately 15 min. This is expected in a lipophilic base for which more than 90%, on average, of the drug molecules are ionized [Kupchan and By, "The Veratrum Group," in Alkaloids, Vol. 10, Manske, R.H.F. (ed.), New York, Academic Press (1968), pp. 193-285].

[2] = test system: A-fibers of rabbit vagus nerve; assay: Extracellular recording of compound action potentials (APc), desheathed vagus nerve, A-fibers; set-up: species or system New Zealand white rabbit; conditions: for inhibition at 0.5 µM / activity at 0.5 µM: Oryctolagus cuniculus, 0.5 μM VTD; for inhibition at 0.5 µM: 1.25 h, mean ± SEM; for activity at 0.5 µM: read-out: Amplitude of single APc elevation relative to amplitude at beginning of VTD exposure
Method: (§4) Adult male New Zealand white rabbits (3±0.5 kg) were pretreated intramuscularly with a mixture of ketamine (200 mg), xylazine (20 mg) and atropine (0.4 mg) for sedation. Ten minutes after this treatment, the animals were anesthetized with diethyl ether. After cessation of respiration, a longitudinal skin incision was made, and the cervical portion of both vagus nerves was dissected. The vagus nerves were temporarily stored at room temperature (22° C.) in a beaker containing modified HEPES Liley (HL) solution stirred constantly by aeration with a mixture of 95% oxygen and 5% carbon dioxide.
(§5) The modified HL solution used for bathing the nerve and subsequent drug perfusion consisted of (in mM): NaCl, 118.0; KCl, 5.0; CaCl2 2H2 0, 2.0; MgCl2 6H2 0, 1.0; α-D(+)-glucose, 11.0; NaHC03, 25.0; and N-2-hydroxy-ethylpiperazine-N-2-ethanesulfonic acid (HEPES) buffer, 5.0 mM. The pH was adjusted to 7.4±0.05 by addition of 1 N NaOH. The perfusion solution was bubbled with a gas mixture of 95% oxygen and 5% carbon dioxide at a vigorous rate just before flowing onto the nerve. The pH was stabilized by the HEPES buffer and maintained at 7.4.
(§6) VTD free base (no. V-5754, lot 58F-7828, Sigma, St. Louis, Mo.) was stored in a desiccator below 0° C. and was used to prepare a 2 mM stock solution in dimethyl sulfoxide [DMSO], Fisher Scientific, lot 861316), which also was stored at below 0° C. VTD, a steroidal alkaloid (FIG. 2A) that is produced by certain lilies, has a solubility limited to approximately 10^-3 M in aqueous slat solutions [Kupchan and By, "The Veratrum Group," in Alkaloids, Vol. 10, Manske, R.H.F. (ed.), New York, Academic Press (1968), pp. 193-285]. The stock VTD solution was diluted to final concentrations of 0.2-10 μM by the addition of HL. The maximum equivalent content of DMSO is 0.5%, and in three control experiments we detected no change in electrophysiologic behavior with 1% DMSO.
as §1, §2, §3
The standard protocol used for testing the action of VTD was to record the APc elevations in control HL solution for 30-60 min. before adding VTD; for 60-75 min. during VTD application; and for 60-75 min. after replacement with VTD-free HL. […]

[3] = test system: C-fibers of rabbit vagus nerve; assay: Sucrose-gap recording in the veratrinized region, C-fibers; set-up: species or system New Zealand white rabbit
Method: as §4, §5, §6
Nerves were desheathed and mounted in an acrylic sucrose-gap chamber (FIG. 2C). We used a method after that described by Stampfli [Stampfli, R., Experientia 10:508-509 (1954); see also Rando et al., Mol. Pharmacol. 29:467-477 (1986)]. […] In contrast to the extracellular chamber described above, which measured APc in a drug-free segment after they had propagated through a VTD solution, the sucrose gap measured the behavior of the nerve membrane directly exposed to drug, the "veratrinized" nerve.
APc and the CRP were recorded with the same amplifier used for extracellular recording (see above), but passed both to the DC-coupled input of the storage oscilloscope (for APc) and to a strip-chart recorder (for CRP) (model 8376-20, Cole-Palmer). […]

COc1ccc(C(=O)OC2CCC3(C)C4CCC5C6(O)CC(O)C7(O)C(CN8CC(C)CCC8C7(C)O)C6(O)CC53OC24O)cc1OC (centres unmarked) [VTD, veratridine]
Time to affect the C-fibers detectably, sheathed nerve ([1]; 2 μM VTD): approximately 30 min. | Time to affect the C-fibers detectably, sheathed nerve ([1]; 10 μM VTD): approximately 15 min. | Use-dependent reduction as % of that achieved at steady state on a desheathed nerve by 0.2 μm VTD ([1]; 10 Hz, 60-min. exposure to 10 μm VTD): approximately 30% | C-fiber elevation / APc inhibition in sheathed nerves ([1]; intact sheath): inhibited selectively; also recorded: progressively inhibited in a use-dependent fashion | Reduction of rate of penetration into the nerve by the sheath ([1]; sheathed vs desheathed nerve): at least 50 fold | Rate of VTD action with intact nerve sheath ([1]; vs desheathed nerves): far less than in desheathed nerves | Duration of steady-state effect in drug-free solution ([1]; wash-out period after 75 min. exposure, both nerves tested, up to): up to 3 h | Response of A-fibers during repetitive stimulation compared with drug-free solutions ([2]; 2 μM VTD, 100-Hz stimulation): almost identical to that in drug-free solutions before and after VTD exposure | Single-stimulus APc after VTD compared with no-VTD controls ([2]; A-fibers, 0.5 μM, 60 min. in VTD, P>0.05): no significant difference | Decline of APc elevation at the second stimulation ([2]; A-fibers, 2 μM VTD, 100 Hz, normal refractory behavior): about 15% | Reversal of use-dependent depression by washing ([2]; A-fibers, VTD-free HL wash): did not reverse | inhibition at 0.5 µM ([2]; A-fibers, 100 Hz, after 75 min. in VTD, P < 0.001 vs control, read-out: Percent inhibition of the tenth APc in a train compared to the first, VTD): 25.3 ± 3.5% | inhibition at 0.5 µM ([2]; A-fibers, 100 Hz, after 75 min. of wash, read-out: Percent inhibition of the tenth APc in a train compared to the first, HL (Wash)): 27 ± 2.8% | activity at 0.5 µM ([2]; A-fibers, during VTD exposure): 117 ± 7% | activity at 0.5 µM ([2]; A-fibers, wash period): 123 ± 14% | Use-dependent reduction of APc by VTD, A-fibers ([2]; up to 2 μM): modified little; also recorded: inconsequential for A-fibers | C-fiber elevation after addition of VTD ([3]; 0.5 μm VTD, single stimulus): unaffected | Time for development of VTD-induced depolarization (VID) after stimulation ([3]; 0.5 μm VTD, within about 100 ms): ≤ 100 ms | Decay halftime of VTD-induced depolarization (VID) ([3]; after 1 hr in 2.0 μm VTD): 3 to 4 s | Primary C-fiber elevations during cumulative VID ([3]; repetitive stimulation): much smaller than were the elevations induced by single stimuli; also recorded: selectively reduced
